According to patent publication US20080058249A1, “Complexes” (Lipopeptide AB, priority 2004, published 2008):

What was measured:
[1] = Ocular inspection of appearance of aqueous peptide/CPL-Galactolipid mixtures; assay type: physicochemical; settings: after 2 h and 2 days of storage at room temperature; 0.20% CPL-Galactolipid; LL-25 68-98 ppm, LL-37 98-213 ppm, LL-38 50-102 ppm, LL-20 52-98 ppm
Procedure: To prepare the solution of the complex the peptide and CPL-Galactolipid are weighed in a 100 ml glass flask and then PBS (10 mM sodium phosphate, 150 mM NaCl, pH 7.4) is added. The sample is vigorously shaken, using a suitable shaker at high speed, for 1-2 h or until the mixture has become clear, and is then allowed to equilibrate and settle for about 30 min at room temperature. Samples of LL-20, LL-25, LL-37 and LL-38 as trifluoroacetate salts and CPL-Galactolipid were prepared using the amounts stated in Table 1 below. The peptide mixtures all contained 0.20% CPL-Galactolipid.
Ocular inspections were made after 2 h and 2 days of storage at room temperature of the mixtures. […] The molecular weight of LL-20 was calculated to be 2.4 kDa.

[2] = test system: Bacillius megaterium; assay: Inhibition zone assay of antimicrobial activity; assay type: cell-based; settings: complex with CPL-Galactolipid; LL-25 at 68 ppm
Procedure: Test of antimicrobial activity of LL-20 and LL-25 complexes The antimicrobial activity was tested using an inhibition zone assay. As a test bacterium, Bacillius megaterium was used.

[3] = biological target: elastase from Pseudomonas aeruginosa (Pseudomonas aeruginosa, UniProt P14756); assay: in vitro; settings: for RRT 0.66 degradation fragment, normalized peak area / RRT 0.88 degradation fragment, normalized peak area: elastase:peptide approx. 1:2500, 37° C.
Procedure: (§1) In this study we compared the enzymatic degradation rate of LL-37 in an aqueous buffered system to that of a colloidal solution of LL-37 in a galactolipid complex. The experimental procedures for enzymatic degradation were essentially as described using a reverse phase HPLC system (C-18) operating at 210 nm.
(§2) In brief: Two stock solutions A and B were prepared. Solution A, “the reference”, contained 100 μg/ml of LL-37 in PBS, pH 7.4. Solution B, “the complex”, contained in addition to 100 μg/ml LL-37 in PBS, pH 7.4, 0.2% of galactolipids (w/w). Two sets of samples were prepared in Eppendorf tubes, 8 tubes from each stock solution. […] The reactions were kept at 37° C. and samples were withdrawn at predetermined intervals. The reactions were stopped by heating the samples to 100° C. for 5 minutes. After stopping, the reactions were stored at −18° C. prior analysis.
(§3) All samples were analysed in duplicates and the peak area for LL-37 was normalized to that of the negative control, which was set to 1.00. Retention times are given as relative retention time (RRT) to LL-37, which is set to RRT=1.00.

[4] = test system: elastase from Pseudomonas aeruginosa; assay: in vitro; settings: isolated enzyme elastase, pH 7.4
Procedure: as §1, §2, §3

[5] = at certain weight ratios; cited from earlier work
[6] = when complexed with galactolipids; cited from earlier work

elastase from Pseudomonas aeruginosa (Pseudomonas aeruginosa, UniProt P14756), sequence (P14756 198-498): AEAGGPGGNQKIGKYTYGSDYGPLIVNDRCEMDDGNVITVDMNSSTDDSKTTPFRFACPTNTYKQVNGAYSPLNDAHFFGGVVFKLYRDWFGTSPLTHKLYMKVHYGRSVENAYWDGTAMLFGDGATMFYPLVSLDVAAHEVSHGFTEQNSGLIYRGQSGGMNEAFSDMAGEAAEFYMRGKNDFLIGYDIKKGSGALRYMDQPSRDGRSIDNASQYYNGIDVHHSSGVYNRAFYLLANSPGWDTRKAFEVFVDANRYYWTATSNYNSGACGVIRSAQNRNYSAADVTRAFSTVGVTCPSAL

LLGDFFRKSKEKIGKEFKRIVQRIK [LL-25]
Ocular inspection of the mixtures [1]: clear or almost clear solutions | Antimicrobial activity [2]: showed an antimicrobial activity

CC[C@H](C)[C@H](NC(=O)[C@H](CCCCN)NC(=O)[C@H](CCC(=O)O)NC(=O)[C@H](CCCCN)NC(=O)[C@H](CO)NC(=O)[C@H](CCCCN)NC(=O)[C@H](CCCNC(=N)N)NC(=O)[C@H](Cc1ccccc1)NC(=O)[C@H](Cc1ccccc1)NC(=O)[C@H](CC(=O)O)NC(=O)CNC(=O)[C@H](CC(C)C)NC(=O)[C@@H](N)CC(C)C)C(=O)NCC(=O)N[C@@H](CCCCN)C(=O)N[C@@H](CCC(=O)O)C(=O)N[C@@H](Cc1ccccc1)C(=O)N[C@@H](CCCCN)C(=O)N[C@@H](CCCNC(=N)N)C(=O)N[C@H](C(=O)N[C@H](C(=O)N[C@@H](CCC(N)=O)C(=O)N[C@@H](CCCNC(=N)N)C(=O)N[C@H](C(=O)N[C@@H](CCCCN)C(=O)N[C@@H](CC(=O)O)C(=O)N[C@@H](Cc1ccccc1)C(=O)N[C@@H](CC(C)C)C(=O)N[C@@H](CCCNC(=N)N)C(=O)N[C@@H](CC(N)=O)C(=O)N[C@@H](CC(C)C)C(=O)N[C@H](C(=O)N1CCC[C@H]1C(=O)N[C@@H](CCCNC(=N)N)C(=O)N[C@H](C(=O)N[C@@H](CCC(=O)O)C(=O)N[C@@H](CO)C(=O)O)[C@@H](C)O)C(C)C)[C@@H](C)CC)C(C)C)[C@@H](C)CC [LL-37 in aqueous buffer]
RRT 0.66 degradation fragment, normalized peak area ([3]; 1 min): 0.1 | RRT 0.88 degradation fragment, normalized peak area ([3]; 1 min): 0.4 | RRT 0.66 degradation fragment, normalized peak area ([3]; 5 min): 0.14 | RRT 0.88 degradation fragment, normalized peak area ([3]; 5 min): 0.36 | RRT 0.66 degradation fragment, normalized peak area ([3]; 15 min): 0.27 | RRT 0.88 degradation fragment, normalized peak area ([3]; 15 min): 0.04 | RRT 0.66 degradation fragment, normalized peak area ([3]; 30 min): 0.54 | RRT 0.66 degradation fragment, normalized peak area ([3]; 1 h): 0.46 | RRT 0.66 degradation fragment, normalized peak area ([3]; 4 h): 0.31 | RRT 0.66 degradation fragment, normalized peak area ([3]; 20 h): 0.08 | Degradation when treated with elastase ([3]; elastase from Pseudomonas aeruginosa, 37° C., up to 20 h): rapidly degraded | RRT 1.00 (LL-37) peak area normalized to negative control (1.00) ([3]; time 0, 100 μg/ml LL-37, PBS pH 7.4, 37° C.): 1.00 | remaining at 1 min, 100 μg/ml [4]: 30% | remaining at 5 min, 100 μg/ml [4]: 23%

LLGDFFRKSKEKIGKEFKRIVQRIKDFLRNLVPRTES [LL-37]
Ocular inspection of the mixtures [1]: clear or almost clear solutions | Formation of colloidal solutions with galactolipids [5]: formed stable, clear colloidal solutions | In vitro cytotoxicity [6]: reduced

LLGDFFRKSKEKIGKEFKRIVQRIKDFLRNLVPRTESS [LL-38]
Ocular inspection of the mixtures [1]: clear or almost clear solutions
